According to patent EP2961753B1, “STANNOUS FLUORESCENT PROBE” (priority 2014, dated 2015):

Columns and labels:
[1] = pH titration of probe fluorescence; format: physicochemical; conditions: 10 µM in PBS, fluorescence at 580 nm, excitation 560 nm, no Sn^2+
Procedure: pH titration of Compounds R1 and R2 is described. Stock solutions of Compounds R1 and R2 are respectively added to sodium phosphate buffers of various pH to a final concentration of 10 µM. The fluorescence emission spectra are recorded as a function of pH using λex at 560 nm. The titration curves are plotted by fluorescence emission intensities at 580 nm versus pH.
The impact of pH values on fluorescence is described. The pirolactam ring of the rhodamine derivatives will open in a certain pH range and indicates the fluorescence of rhodamine. It is therefore necessary to check the fluorescence properties of Compounds R1 and R2 in solutions with different pH values. […] Considering the application of Sn^2+ probe R1 and R2 intracellular or extracellular may be disturbed by the pH, the acid-base titration experiments are carried out by adjusting the pH with an aqueous solution of NaOH and HCl in Phosphate-Buffered Saline ("PBS") (Fig.2 a and b). […] Figures 2a and 2b show the dependence of fluorescence at 580 nm of comparative Compound R1 and inventive Compound R2 (10 µM) at different pH in PBS solution. Excitation was at 560 nm.

[2] = Metal ion sensing: fluorescence titration with Sn^2+ and selectivity against various metal ions; format: physicochemical; conditions: for fluorescence at 580 nm / fluorescence of the solution / selectivity on sensing Sn^2+: metal ions that turn fluorescence on: 20 µM in ethanol-water (1: 1, v/v, PH 7.04); for fluorescence at 580 nm: addition of Sn^2+ (0-20 eq); for fluorescence at 580 nm / selectivity on sensing Sn^2+: metal ions that turn fluorescence on / fluorescence enhancement by other transition and heavy metal ions: excitation 560 nm; for fluorescence of the solution: no metal ion added; for selectivity on sensing Sn^2+: metal ions that turn fluorescence on: various metal ions; for fluorescence enhancement by other transition and heavy metal ions: 20 µM, K^+, Ag^+, Ca^2+, Mg^2+, Zn^2+, Pb^2+, Ni^2+, Mn^2+, Co^2+, Cd^2+, Hg^2+
Procedure: Solutions of the metal ions (10.0 mM) are prepared in deionized water. A stock solutions of Compounds R1 and R2 (0.2 mM) are each prepared in ethanol and then diluted to 20 µM with ethanol-water (1: 1, v/v, pH 7.04) for spectral measurement. For titration experiments, a 2.0 mL solution of Compounds R1 and R2 (20 µM) are filled in a respective quartz optical cell of 1 cm optical path length. Sn^2+ stock solution is added into the quartz optical cell gradually by micro-pipette. Spectral data is recorded at 5 min after addition. In selectivity experiments, the test samples are prepared by placing appropriate amounts of metal ion stock into 2.0 mL solution of R1, R2 (20 µM). For fluorescence measurements, excitation is provided at 560 nm, while emission is collected from 565 to 700 nm.

## CCN(CC)c1ccc2c(c1)Oc1cc(N(CC)CC)ccc1C21c2ccccc2C(=O)N1NC(=O)OC(C)(C)C [Compound R2]
[1]
  pH range for inducing fluorescence turning on: 2-4.5
[2]
  fluorescence at 580 nm: turned on and grown drastically
  fluorescence of the solution: non-fluorescent
  selectivity on sensing Sn^2+: metal ions that turn fluorescence on: tuning on just in the presence of Sn^2+ and Cr^3+
  fluorescence enhancement by other transition and heavy metal ions: minimal enhancement

## Spiro[1H-isoindole-1,9'-[9H]xanthen]-3(2H)-one, 2-[2-[bis(2-hydroxyethyl)amino]amino]ethyl]-3',6'-bis(diethylamino) [Compound R1]
[1]
  pH range for inducing fluorescence turning on: 2.5-6
[2]
  fluorescence at 580 nm: turned on and grown drastically
  fluorescence of the solution: non-fluorescent
  selectivity on sensing Sn^2+: metal ions that turn fluorescence on: tuning on just in the presence of Sn^2+ and Cr^3+
  fluorescence enhancement by other transition and heavy metal ions: minimal enhancement
